# Assay results taken from patent US8809001B2, “High throughput assays for inhibitors and activators of PAQR receptors” (University of Florida Research Foundation, Inc., priority 2007, dated 2014).
# Tests used:
# AdipoR1 = biological target: T1, AdipoR1 (Homo sapiens, UniProt Q96A54); assay: FET3-lacZ (pFET3-397) reporter repression in yeast expressing AdipoR1; type: cell-based; conditions: concentrations as high as 10 μM
# T1 construct: expressed in transfected cells; host or cells: Saccharomyces cerevisiae BY4742, GAL1-driven pYES260 plasmid
# T1 sequence (Q96A54 1-375): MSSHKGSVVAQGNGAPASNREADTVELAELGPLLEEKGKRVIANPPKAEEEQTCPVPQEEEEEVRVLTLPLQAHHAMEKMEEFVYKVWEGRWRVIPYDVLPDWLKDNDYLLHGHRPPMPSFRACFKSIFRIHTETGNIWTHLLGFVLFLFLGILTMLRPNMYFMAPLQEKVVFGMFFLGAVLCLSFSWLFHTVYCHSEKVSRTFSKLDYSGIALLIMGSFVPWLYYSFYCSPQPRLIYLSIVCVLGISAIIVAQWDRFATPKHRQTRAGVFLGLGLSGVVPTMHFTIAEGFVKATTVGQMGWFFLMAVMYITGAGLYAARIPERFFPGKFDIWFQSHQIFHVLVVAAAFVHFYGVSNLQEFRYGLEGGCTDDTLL
# Description: IZH1-4 were cloned into pRS316-GAL1 via gap repair as previously described (Lyons et al., 2004). The triple hemaglutinin epitope (3×HA) tagged construct of the IZH2 gene was generated by replacing the ZRC1 promoter and open reading frame in the YCpZRC1-HA plasmid (MacDiarmid et al., 2002) with those of IZH2. This was accomplished by gap repair of Age I-digested YCpZRC1-HA to generate pIZH2-3×HA. This construct has the IZH2 gene driven by its native promoter and retains the ZRC1 terminator sequence. The native IZH2 promoter was then exchanged with the GAL1 promoter using gap repair of pIZH2-3×HA plasmids cut with EcoN I. AdipoR1 and AdipoR2 were amplified from cDNAs obtained from OpenBiosystems (Accession #: BC010743 and BC051858, respectively). PCR products were cloned into NcoI/BamHI digested pYES260 vector (Melcher, 2000) by gap repair allowing for GAL1-driven expression. Plasmids containing GAL1-driven the TAP (Tandem Affinity Purification) tagged NRG1 and NRG2 constructs were purchased from OpenBiosystems. […]
# (§1) Assays and growth conditions. […] Cells were allowed to grow to mid-log phase at which time the activity of the FET3 gene was monitored using a FET3-lacZ promoter-reporter construct. lacZ activities are presented as a percentage of activity seen in untreated cells expressing the appropriate empty expression vector control. […]
# AdipoR2 = assay: FET3-lacZ (pFET3-397) reporter repression in yeast expressing AdipoR2; type: cell-based, human; conditions: concentrations as high as 10 μM
# Description: IZH1-4 were cloned into pRS316-GAL1 via gap repair as previously described (Lyons et al., 2004). The triple hemaglutinin epitope (3×HA) tagged construct of the IZH2 gene was generated by replacing the ZRC1 promoter and open reading frame in the YCpZRC1-HA plasmid (MacDiarmid et al., 2002) with those of IZH2. This was accomplished by gap repair of Age I-digested YCpZRC1-HA to generate pIZH2-3×HA. This construct has the IZH2 gene driven by its native promoter and retains the ZRC1 terminator sequence. The native IZH2 promoter was then exchanged with the GAL1 promoter using gap repair of pIZH2-3×HA plasmids cut with EcoN I. AdipoR1 and AdipoR2 were amplified from cDNAs obtained from OpenBiosystems (Accession #: BC010743 and BC051858, respectively). PCR products were cloned into NcoI/BamHI digested pYES260 vector (Melcher, 2000) by gap repair allowing for GAL1-driven expression. Plasmids containing GAL1-driven the TAP (Tandem Affinity Purification) tagged NRG1 and NRG2 constructs were purchased from OpenBiosystems.
# Most experiments were performed in a defined EDTA-containing medium known as low iron medium (LIM) (Eide et al., 1992). Iron-deficiency and repletion were generated by adding either 1 μM or 1 mM of FeCl3, respectively, to LIM. 2% galactose was used to fully induce GAL1-driven gene overexpression. Total sugar concentration was maintained at 2% by the addition of raffinose in those experiments in which the % galactose was modulated to decrease expression levels. Cells were allowed to grow to mid-log phase in LIM and β-galactosidase assays on permeabilized yeast were performed as previously described (Lyons et al., 2000). […]
# as §1
# FET3 = assay: FET3-lacZ reporter in wild type yeast carrying empty expression plasmid; type: cell-based, Saccharomyces cerevisiae; conditions: no human PAQR
# Description: Assays and growth conditions. Strains were maintained using standard protocol and grown in synthetic defined (SD) media with the appropriate amino acids to match the auxotrophies of the individual strains. Low Iron Medium (LIM) contains EDTA to limit iron-bioavailability and its composition has been previously described (Kupchak et al., 2007). […] In brief, overnights of cells grown in SD-glucose media were re-inoculated into iron-deficient LIM to induce the expression of FET3. 2% galactose was used as a carbon source to induce full expression of PAQR genes driven by the GAL1 promoter, while 0.05% galactose/1.95% raffinose was used for reduced PAQR expression. All ligands were added to the growth medium upon re-inoculation into LIM. For experiments in which steroids were added as ligands, steroids were added from ethanol stocks and “untreated” controls are actually treated with an equal volume of ethanol to control for vehicle effects. Cells were allowed to grow to mid-log phase at which time the activity of the FET3 gene was monitored using a FET3-lacZ promoter-reporter construct. lacZ activities are presented as a percentage of activity seen in untreated cells expressing the appropriate empty expression vector control. For individual experiments, each data point has been done in triplicate and the error bars represent +/−1 standard deviation. All experiments were performed at least three times and a representative experiment is shown. EC50 values were obtained using the web-based BioDataFit software using sigmoidal curve-fitting. (web site changbioscience.com/stat/ec50.html)
compound,measurement,setting,value
"CC(=O)[C@H]1CC[C@H]2[C@@H]3CCC4=CC(=O)CC[C@]4(C)[C@H]3CC[C@]12C [Progesterone, progesterone]",response of AdipoR1 to progesterone,AdipoR1,do not respond
same,response of AdipoR2 to progesterone,AdipoR2,do not respond
same,effect of ligand on FET3 in cells carrying empty expression plasmid,FET3,did not respond
